{"source": "patent EP1354200B1", "about": "“METHOD OF SCREENING FOR GPR40 LIGANDS” (priority 2000, dated 2002)", "format_in_all_cases": "cell-based", "key": {"[1]": {"test_system": "CHO GAL4/Elk-1 reporter cell line", "assay": "GAL4/Elk-1 luciferase reporter assay in host CHO cells (reporter only), with and without pertussis toxin", "text": "(§1) To further test the coupling of GPR40 to Gαi/Gαq a Gal4/Elk-1 reporter was used. A stable, clonal reporter line was created by transfecting CHO cells with a plasmid that contains an expression construct for GAL4/Elk-1 and a GAL4-luciferase reporter construct. A similar reporter system can now be purchased from Stratagene (under the trademark […]®). An expression construct for human GPR40 which contains a G418 resistance construct was transfected into the host CHO GAL4/Elk-1 reporter cell line (10ug plasmid DNA pCR3-GPR40) via electroporation. The cell lines were selected for with 500ug/mL G418 until all cells in the control were dead and clones were then picked. The Gal4/Elk-1 reporter can be activated through Gq or Gi. To confirm coupling via Gi, cells were treated with pertussis toxin treatment which ADP-ribosylates Gαi preventing its interaction with receptors (Bokoch et al., J. Biol. Chem 258:2072 (1983)). Pertussis toxin has no known effect on Gαq.\n(§2) Host cells and those transfected with the GPR40 construct were plated in a 96-well tissue culture plate at 2000 cells/well in DMEM/F12 supplemented with 5% FBS. After 48 hours at 37°C at 5% CO2 the cells were placed in serum-free DMEM/F12 in the presence or absence of 1ug/ml pertussis toxin. […]"}, "human GPR40 [2]": {"biological_target": "T1, human GPR40 (Homo sapiens, UniProt O14842)", "T1 sequence (O14842 whole entry)": "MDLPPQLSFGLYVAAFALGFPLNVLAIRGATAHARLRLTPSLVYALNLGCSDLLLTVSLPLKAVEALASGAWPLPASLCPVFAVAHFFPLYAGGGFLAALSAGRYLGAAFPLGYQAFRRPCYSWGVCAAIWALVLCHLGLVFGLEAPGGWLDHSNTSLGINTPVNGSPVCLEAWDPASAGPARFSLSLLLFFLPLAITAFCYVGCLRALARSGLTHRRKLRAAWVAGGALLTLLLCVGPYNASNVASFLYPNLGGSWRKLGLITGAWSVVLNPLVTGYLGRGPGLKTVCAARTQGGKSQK", "assay": "FLIPR intracellular calcium assay in HEK-293 cells transiently expressing GPR40 (with G-protein cocktail)", "conditions": "for pEC50 / EC50: Additional Fatty Acid Compounds", "text": "The Fluorometric Imaging Plate Reader (FLIPR™, Molecular Devices, UK) measures intracellular fluorescense in multi-well microplates. Where a GPCR couples to a calcium signalling pathway, the FLIPR system can be used with cells expressing the G-protein coupled receptor and containing calcium-sensitive fluorescent dyes, to monitor the intracellular calcium flux that occurs after activation of the G-coupled receptor. See, e.g., Kirk et al., J. Biomolecular Screening, 1:75 (1996).\n(§3) The assays utilized a G-protein cocktail (+GPC) that contained chimeric and promiscuous G-proteins, as is known in the art of screening orphan G-protein coupled receptors."}, "human GPR40 [3]": {"biological_target": "T1, human GPR40", "assay": "GAL4/Elk-1 luciferase reporter assay in CHO clones transfected with human GPR40, with and without pertussis toxin", "design": "expressed in transfected cells; host or cells: wild-type CHO cells, transient co-transfection (CMV-GPR40 + 3x-CRE-Luc)", "conditions": "cells containing GPR40, Figure 4B", "text": "as §1, §2"}, "human GPR40 [4]": {"biological_target": "T1, human GPR40", "assay": "3X-CRE-luciferase reporter assay in CHO cells (Gs coupling)", "design": "expressed in transfected cells; host or cells: wild-type CHO cells, transient co-transfection (CMV-GPR40 + 3x-CRE-Luc)", "conditions": "CRE-Luc; cells containing reporter only and cells containing GPR40; 4 hours of treatment; Figure 3c", "procedure": "Specific coupling was determined in mammalian cells using transient expression of a CRE-luciferase reporter for Gαs and stable cell-lines containing Gal4/ELK-1-luciferase reporter for Gαq/Gαi. Wild-type CHO cells were co-transfected with 3X-CRE-luciferase reporter vector and various amounts of an expression vector for GPR40. The control cells were transfected with reporter vector only. The reporter gene plasmids were produced in house but similar vectors can be purchased from Stratagene ([…]®). Cells were plated in a 24 well tissue culture plate at 1 x 10^4 cells/well in DMEM/F12 supplemented with 5% FBS. After 72 hours at 37°C, 5% CO2, the cells were transfected using the liposomal transfection reagent sold under the trademark LIPOFECTAMINE® and with the following combinations of plasmids: • A- 3x-CRE-Luc • B- 3x-CRE-Luc + CMV-GPR40 • C- 3x-CRE-Luc + CMV-Gs coupled receptor The concentration of reporter plasmid for all wells was 0.15µg/well. Concentrations of receptor plasmids were 0.5, 1.0, 5.0, 10.0 ng/well. After 24hrs Cells containing 1ng/well of receptor plasmid or no DNA control and CRE-Luc reporter were treated with fatty acid or the calcitonin which is known to act through a Gs-coupled receptor (Chakraborty, Science 251: 1078 (1991)) at concentrations indicated. […]"}, "PGRW": {"test_system": "PGRW", "assay": "FLIPR intracellular calcium assay in HEK-293 cells transiently expressing control 7TM receptor PGRW", "conditions": "HEK-293 cells transiently expressing PGRW; Figure 1", "text": "as §3"}, "HLTEX11": {"test_system": "HLTEX11", "assay": "FLIPR intracellular calcium assay in HEK-293 cells transiently expressing control 7TM receptor HLTEX11", "conditions": "HEK-293 cells transiently expressing HLTEX11; Figure 1", "text": "as §3"}}}
{"molecule": "CCCCCCCCC#CCC#CCC#CCCCC(=O)O", "note": "[5,8,11-Eicosatriynoic acid]", "values": [{"measurement": "luciferase production", "setting": "[1]; Figure 4B", "value": "no effect"}, {"measurement": "pEC50", "setting": "human GPR40 [2]; FLIPR", "value": 5.77}, {"measurement": "effect of pertussis toxin treatment on the stimulated luciferase activity", "setting": "human GPR40 [3]; 1ug/ml pertussis toxin", "value": "not inhibited"}, {"measurement": "luciferase activity compared to basal", "setting": "human GPR40 [3]", "value": "increased"}, {"measurement": "luciferase production", "setting": "human GPR40 [4]", "value": "no effect"}]}
{"molecule": "CCCCC[C@H](O)[C@H](O)/C=C/C=C/C=C\\C/C=C\\CCCC(=O)O", "note": "[14®, 15(S)-DiHETE]", "values": [{"measurement": "EC50", "setting": "human GPR40 [2]; FLIPR", "value": 23.4, "unit": "µM"}, {"measurement": "pEC50", "setting": "human GPR40 [2]; FLIPR", "value": 4.63}]}
{"molecule": "C#CCCCCCCCCCCCCCCCC(=O)O", "note": "[17-Octadecynoic acid]", "values": [{"measurement": "pEC50", "setting": "human GPR40 [2]; FLIPR", "value": 5.12}]}
{"molecule": "CCCCC/C=C\\C/C=C\\C/C=C\\C/C=C\\CCCCCC(=O)O", "note": "[Adrenic acid]", "values": [{"measurement": "EC50", "setting": "human GPR40 [2]; FLIPR", "value": 13.5, "unit": "µM"}, {"measurement": "pEC50", "setting": "human GPR40 [2]; FLIPR", "value": 4.87}]}
{"molecule": "CC1=C(/C=C/C(C)=C/C=C/C(C)=C/C=O)C(C)(C)CCC1", "note": "[All-trans-retinal]", "values": [{"measurement": "Mean pEC50 of 3 expts", "setting": "human GPR40 [2]; mean over experiments (n=1 or n=2 where printed), FLIPR", "value": 4.16}]}
{"molecule": "CCCCC/C=C\\C/C=C\\C/C=C\\C/C=C\\CCCC(=O)O", "note": "[Arachidonic acid]", "values": [{"measurement": "pEC50", "setting": "human GPR40 [2]; FLIPR", "value": 5.04}]}
{"molecule": "CCCCC/C=C\\C/C=C\\C/C=C\\CCCCCCC(=O)O", "note": "[Dihomo-gamma-linolenic acid]", "values": [{"measurement": "pEC50", "setting": "human GPR40 [2]; FLIPR", "value": 5.14}]}
{"molecule": "CC/C=C\\C/C=C\\C/C=C\\C/C=C\\C/C=C\\CCCCCC(=O)O", "note": "[Docosa-7Z,10Z,13Z,16Z,19Z-pentaenoic acid]", "values": [{"measurement": "pEC50", "setting": "human GPR40 [2]; FLIPR", "value": 5.33}]}
{"molecule": "CC/C=C\\C/C=C\\C/C=C\\CCCCCCCCCCCC(=O)O", "note": "[Docosa-13Z,16Z,19Z-trienoic acid]", "values": [{"measurement": "pEC50", "setting": "human GPR40 [2]; FLIPR", "value": 5.17}]}
{"molecule": "CC/C=C\\C/C=C\\C/C=C\\C/C=C\\C/C=C\\CCCC(=O)O", "note": "[Eicosa-5Z,8Z,11Z,14Z,17Z-pentaenoic acid]", "values": [{"measurement": "pEC50", "setting": "human GPR40 [2]; FLIPR", "value": 5.17}]}
{"molecule": "CCCCCCCCCCC/C=C\\C/C=C\\CCCC(=O)O", "note": "[Eicosa-5Z,8Z-dienoic acid]", "values": [{"measurement": "pEC50", "setting": "human GPR40 [2]; FLIPR", "value": 5.11}]}
{"molecule": "CC/C=C\\C/C=C\\C/C=C\\CCCCCCCCCC(=O)O", "note": "[Eicosa-11Z,14Z,17Z-trienoic acid]", "values": [{"measurement": "pEC50", "setting": "human GPR40 [2]; FLIPR", "value": 4.95}]}
{"molecule": "CCCCC/C=C\\C/C=C\\CCCCCCCCCC(=O)O", "note": "[Eicosa-11Z,14Z-dienoic acid]", "values": [{"measurement": "pEC50", "setting": "human GPR40 [2]; FLIPR", "value": 4.97}]}
{"molecule": "CCCCCCCC/C=C/CCCCCCCC(=O)O", "note": "[Elaidic acid]", "values": [{"measurement": "pEC50", "setting": "human GPR40 [2]; FLIPR", "value": 4.87}, {"measurement": "FLIPR response (intracellular calcium levels)", "setting": "human GPR40 [2]; HEK-293 cells transiently expressing GPR40, +GPC, Figure 1", "value": "response detected"}, {"measurement": "FLIPR response", "setting": "PGRW", "value": "No response"}, {"measurement": "FLIPR response", "setting": "HLTEX11", "value": "No response"}]}
{"molecule": "CCCCCCCC/C=C\\CCCCCCCC(=O)OC[C@@H](O)COP(=O)(O)O", "note": "[LPA, lysophosphatidic acid (oleoyl)]", "values": [{"measurement": "agonist-stimulated reporter activity following pertussis toxin treatment", "setting": "[1]; 1ug/ml pertussis toxin, Figures 4A, 4C", "value": "completely abolished"}]}
{"molecule": "CCCCC/C=C\\C/C=C\\CCCCCCCC(=O)O", "note": "[Linoleic acid]", "values": [{"measurement": "pEC50", "setting": "human GPR40 [2]; FLIPR", "value": 5.02}]}
{"molecule": "CCCCCCCC/C=C\\C/C=C\\C/C=C\\CCCC(=O)O", "note": "[Mean acid]", "values": [{"measurement": "EC50", "setting": "human GPR40 [2]; FLIPR", "value": 2.51, "unit": "µM"}, {"measurement": "pEC50", "setting": "human GPR40 [2]; FLIPR", "value": 5.60}]}
{"molecule": "CCC=CCC=CCC=CCC=CCC=CC/C=C\\CCC(=O)O", "note": "[cis-4,7,10,13,16,19-Docosahexaenoic acid]", "values": [{"measurement": "pEC50", "setting": "human GPR40 [2]; FLIPR", "value": 5.79}]}
{"molecule": "calcitonin", "values": [{"measurement": "luciferase production", "setting": "human GPR40 [4]", "value": "increase"}]}
